# Assay results taken from the supplement of paper PMC11061612.
# Key:
# Assay in all cases: combination Emax (second highest fraction inhibited in the dose matrix, 72 h); higher = more inhibition; extreme values may be limits of the assay
# [1] = tested on: NCI-H2342 (Lung Adenocarcinoma)
# How it was run: (§1)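 Cell lines in DMEM/F12 or RPMI with 10% FBS were plated in 1536-well plates, held 24 hours at 37°C, 5% CO2, then given two-drug dose matrices for 72 hours (DMSO typically 0.2%). Viability was read by CellTiter-Glo 2.0 luminescence and scaled as inhibition from 0 (vehicle wells) to 1 (blank wells). Combination Emax is the second-highest inhibition in the matrix; Bliss excess is observed combination effect minus expected EA + EB − EA·EB, EA and EB being single-agent effects.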
# [2] = tested on: MFE-280 (Endometrial Carcinoma)
# How it was run: as §1
# [3] = tested on: REH (B-Lymphoblastic Leukemia)
# How it was run: as §1
# [4] = tested on: RKN (Other Solid Carcinomas)
# How it was run: as §1
# [5] = tested on: COLO-680N (Esophageal Squamous Cell Carcinoma)
# How it was run: as §1
# NB12 (Neuroblastoma) = tested on: NB12 (Neuroblastoma)
# How it was run: as §1
# [6] = tested on: OVMIU (Ovarian Carcinoma)
# How it was run: as §1
# [7] = tested on: LK-2 (Squamous Cell Lung Carcinoma)
# How it was run: as §1
SMILES,combination Emax [1],combination Emax [2],combination Emax [3],combination Emax [4],combination Emax [5],combination Emax (NB12 (Neuroblastoma)),combination Emax [6],combination Emax [7]
"C[C@@H](Oc1cc(-c2cnn(C3CCNCC3)c2)cnc1N)c1c(Cl)ccc(F)c1Cl [Crizotinib] + CC1=C(C(=CC=C1)Cl)NC(=O)C2=CN=C(S2)NC3=CC(=NC(=N3)C)N4CCN(CC4)CCO [Dasatinib] (first compound max 10 µM, 7x7, partner max 2 µM)",0.37,0.661,0.752,0.567,0.869,0.766,0.933,0.765
"O=C(c1cc(Cc2n[nH]c(=O)c3ccccc23)ccc1F)N1CCN(C(=O)C2CC2)CC1 [Olaparib] + COc1nnc2ccc(N3CCC(c4ccc(OCCN5CCN(C)C(=O)[C@H]5C)cc4)CC3)nn12 [AZD5153] (first compound max 10 µM, 7x7, partner max 1 µM)",0.289,0.397,0.762,0.412,0.27,0.782,0.603,0.372
"CN(CCO)CC[C@H](CSc1ccccc1)Nc1ccc(S(=O)(=O)NC(=O)c2ccc(N3CCC([C@@H](O)c4ccccc4-c4ccc(Cl)cc4)CC3)cc2)cc1S(=O)(=O)C(F)(F)F [AZD4320] + CS(=O)(=O)CCNCc1ccc(-c2ccc3ncnc(Nc4ccc(OCc5cccc(F)c5)c(Cl)c4)c3c2)o1 [Lapatinib] (first compound max 1 µM, 7x7, partner max 10 µM)",0.368,0.962,1,0.212,0.481,1,0.971,0.977
"O=C(c1cc(Cc2n[nH]c(=O)c3ccccc23)ccc1F)N1CCN(C(=O)C2CC2)CC1 [Olaparib] + CN(CC[C@H](CSC1=CC=CC=C1)NC2=C(C=C(C=C2)S(=O)(=O)NC(=O)C3=CC=C(C=C3)N4CCC(CC4)[C@H](C5=CC=CC=C5C6=CC=C(C=C6)Cl)O)S(=O)(=O)C(F)(F)F)CCO [AZD4320] (first compound max 10 µM, 7x7, partner max 1 µM)",0.178,0.598,0.986,0.149,0.11,0.997,0.22,0.573
"N#Cc1cnc(Nc2cc(NC[C@H]3CNCCO3)c(C(F)(F)F)cn2)cn1 [SRA737] + Nc1ccn([C@@H]2O[C@H](CO)[C@@H](O)C2(F)F)c(=O)n1 [Gemcitabine] (first compound max 10 µM, 7x7, partner max 0.3 µM)",0.841,0.815,0.989,0.812,0.47,0.742,0.456,0.918
"O=C(c1cc(Cc2n[nH]c(=O)c3ccccc23)ccc1F)N1CCN(C(=O)C2CC2)CC1 [Olaparib] + CC1(C)CCC(CN2CCN(c3ccc(C(=O)NS(=O)(=O)c4ccc(NCC5CCOCC5)c([N+](=O)[O-])c4)c(Oc4cnc5[nH]ccc5c4)c3)CC2)=C(c2ccc(Cl)cc2)C1 [Venetoclax] (first compound max 10 µM, 7x7, partner max 1 µM)",0.158,0.169,0.966,0.119,0.0836,0.922,0.114,0.347
"C[C@@H](Nc1cc(F)cc(F)c1)c1cc(C(=O)N(C)C)cc2c(=O)cc(N3CCOCC3)oc12 [AZD8186] + C1CN(CCC1(C(=O)N[C@@H](CCO)C2=CC=C(C=C2)Cl)N)C3=NC=NC4=C3C=CN4 [AZD5363] (first compound max 10 µM, 7x7, partner max 10 µM)",0.286,0.546,0.452,0.328,0.245,0.419,0.509,0.177
"CN(CCO)CC[C@H](CSc1ccccc1)Nc1ccc(S(=O)(=O)NC(=O)c2ccc(N3CCC([C@@H](O)c4ccccc4-c4ccc(Cl)cc4)CC3)cc2)cc1S(=O)(=O)C(F)(F)F [AZD4320] + Nc1ccn([C@@H]2O[C@H](CO)[C@@H](O)C2(F)F)c(=O)n1 [Gemcitabine] (first compound max 1 µM, 7x7, partner max 0.3 µM)",0.403,0.8,1,0.275,0.3,1,0.596,0.916
"CN(CCO)CC[C@H](CSc1ccccc1)Nc1ccc(S(=O)(=O)NC(=O)c2ccc(N3CCC([C@@H](O)c4ccccc4-c4ccc(Cl)cc4)CC3)cc2)cc1S(=O)(=O)C(F)(F)F [AZD4320] + CC(=O)O[C@H]1C(=O)[C@@]2(C)[C@H]([C@H](OC(=O)c3ccccc3)[C@]3(O)C[C@H](OC(=O)[C@H](O)[C@@H](NC(=O)c4ccccc4)c4ccccc4)C(C)=C1C3(C)C)[C@]1(OC(C)=O)CO[C@@H]1C[C@@H]2O [Paclitaxel] (first compound max 1 µM, 7x7, partner max 3 µM)",0.977,0.979,1,0.994,0.771,1,0.929,1
"N#Cc1cnc(Nc2cc(NC[C@H]3CNCCO3)c(C(F)(F)F)cn2)cn1 [SRA737] + O=c1[nH]cc(F)c(=O)[nH]1 [5-Fluorouracil] (first compound max 10 µM, 7x7, partner max 20 µM)",0.1,0.252,0.798,0.344,0.387,0.173,0.413,0.686
"N#Cc1cnc(Nc2cc(NC[C@H]3CNCCO3)c(C(F)(F)F)cn2)cn1 [SRA737] + C=CCn1c(=O)c2cnc(Nc3ccc(N4CCN(C)CC4)cc3)nc2n1-c1cccc(C(C)(C)O)n1 [AZD1775] (first compound max 10 µM, partner max 1 µM)",0.621,0.566,0.957,0.608,0.35,0.698,0.669,0.953
"C[C@@H]1COCCN1c1cc(C2([S@](C)(=N)=O)CC2)nc(-c2ccnc3[nH]ccc23)n1 [AZD6738] + Nc1ccn([C@@H]2O[C@H](CO)[C@@H](O)C2(F)F)c(=O)n1 [Gemcitabine] (first compound max 10 µM, 7x7, partner max 0.3 µM)",0.85,0.864,0.994,0.788,0.529,0.801,0.517,0.918
"C[C@@H]1COCCN1c1cc(C2([S@](C)(=N)=O)CC2)nc(-c2ccnc3[nH]ccc23)n1 [AZD6738] + C1CC(C1)(C(=O)[O-])C(=O)[O-].N.N.[Pt+2] [Carboplatin] (first compound max 10 µM, 7x7, partner max 10 µM)",0.492,0.302,0.629,0.286,0.287,,0.547,0.406
"Cc1nc(-c2cn3c(n2)-c2ccc(-c4cnn(C(C)(C)C(N)=O)c4)cc2OCC3)n(C(C)C)n1 [Taselisib] + O=C(Nc1ccc2[nH]nc(-c3ccncc3)c2c1)[C@@H]1CCN(CC(=O)N2CCN(c3ccc(-c4ncccn4)cc3)CC2)C1 [SCH772984] (first compound max 10 µM, 7x7, partner max 5 µM)",0.431,0.839,0.477,0.57,0.5,0.684,0.904,0.613
"O=C(c1cc(Cc2n[nH]c(=O)c3ccccc23)ccc1F)N1CCN(C(=O)C2CC2)CC1 [Olaparib] + Cc1c2c(nn1C)CSCc1cc(n(C)n1)CSc1cc(c3ccccc3c1)OCCCc1c(C(=O)O)n(C)c3c-2c(Cl)ccc13 [AZD5991] (first compound max 10 µM, 7x7, partner max 1 µM)",0.239,0.181,0.943,0.161,0.0855,0.379,0.104,0.301
"N#Cc1cnc(Nc2cc(NC[C@H]3CNCCO3)c(C(F)(F)F)cn2)cn1 [SRA737] + CCc1c2c(nc3ccc(O)cc13)-c1cc3c(c(=O)n1C2)COC(=O)[C@]3(O)CC [SN-38] (first compound max 10 µM, 7x7, partner max 0.3 µM)",0.74,0.88,0.991,0.858,0.552,0.705,0.404,0.906
"CS(=O)(=O)CCNCc1ccc(-c2ccc3ncnc(Nc4ccc(OCc5cccc(F)c5)c(Cl)c4)c3c2)o1 [Lapatinib] + Cn1cnc2c(F)c(Nc3ccc(Br)cc3Cl)c(C(=O)NOCCO)cc21 [Selumetinib] (first compound max 10 µM, 7x7, partner max 10 µM)",0.257,0.274,0.237,0.369,0.408,0.354,0.671,0.485
"C=CCn1c(=O)c2cnc(Nc3ccc(N4CCN(C)CC4)cc3)nc2n1-c1cccc(C(C)(C)O)n1 [AZD1775] + CCc1c2c(nc3ccc(O)cc13)-c1cc3c(c(=O)n1C2)COC(=O)[C@]3(O)CC [SN-38] (first compound max 1 µM, partner max 0.3 µM)",0.737,0.87,0.989,0.817,0.483,0.879,0.587,0.975
"C=CCn1c(=O)c2cnc(Nc3ccc(N4CCN(C)CC4)cc3)nc2n1-c1cccc(C(C)(C)O)n1 [AZD1775] + Nc1ccn([C@@H]2O[C@H](CO)[C@@H](O)C2(F)F)c(=O)n1 [Gemcitabine] (first compound max 1 µM, partner max 0.3 µM)",0.784,0.655,0.999,0.633,0.419,0.806,0.608,0.982
"Cc1cc2ncnn2cc1Nc1ncc2c(n1)n(C1CCOCC1)c(=O)n2C [AZD7648] + COc1cc([C@@H]2c3cc4c(cc3[C@@H](O[C@@H]3O[C@@H]5CO[C@@H](C)O[C@H]5[C@H](O)[C@H]3O)[C@H]3COC(=O)[C@H]23)OCO4)cc(OC)c1O [Etoposide] (first compound max 10 µM, 7x7, partner max 10 µM)",0.569,0.889,0.976,0.598,0.404,0.695,0.498,0.784
"C[C@@H](Nc1cc(F)cc(F)c1)c1cc(C(=O)N(C)C)cc2c(=O)cc(N3CCOCC3)oc12 [AZD8186] + CC(=O)c1c(C)c2cnc(Nc3ccc(N4CCNCC4)cn3)nc2n(C2CCCC2)c1=O [Palbociclib] (first compound max 10 µM, 7x7, partner max 10 µM)",0.337,0.518,0.625,0.292,0.419,0.403,0.497,0.237
